Several values for one entry are separate records, joined by “and”; a condition that tells them apart may be missing. Equal entries are not always repeated. Toxic doses and inconclusive results are not listed. Cut-off read from the data, not from the text of the source: active = T/C of 150% or more; inactive = T/C below 125%.
Tested on: L1210 leukemia ip in BDF1 mice, survival T/C
Test: NCI In Vivo Anticancer Drug Screen. Data for tumor model L1210 Leukemia (intraperitoneal) in B6D2F1 (BDF1) mice
Conditions: endpoint: mean survival time, higher = longer survival
In short: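 Transplanted-tumor mice were given test agent; controls received vehicle only. Survival readings from the two groups were divided (treated over control).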

[1] = dose: 50.0 mg/kg/injection, schedule: Q01DX009 (ip), vehicle: saline with Tween-80
[2] = dose: 25.0 mg/kg/injection, schedule: Q04DX003 (ip), vehicle: saline with Tween-80
[3] = dose: 50.0 mg/kg/injection, schedule: Q04DX003 (ip), vehicle: saline with Tween-80
[4] = dose: 100.0 mg/kg/injection, schedule: Q04DX003 (ip), vehicle: saline with Tween-80
[5] = dose: 100.0 mg/kg/injection, schedule: Q01DX009 (ip), vehicle: saline
[6] = dose: 200.0 mg/kg/injection, schedule: Q01DX009 (ip), vehicle: saline

Measured: T/C

CC(C)n1ncc2c(N)ncnc21
inactive: dose: 7.5 mg/kg/injection, schedule: Q01DX001 (ip), vehicle: saline 107 % of control | dose: 7.5 mg/kg/injection, schedule: Q04DX003 (ip), vehicle: saline 100 % of control | dose: 15.0 mg/kg/injection, schedule: Q01DX001 (ip), vehicle: saline 100 % of control | dose: 15.0 mg/kg/injection, schedule: Q04DX003 (ip), vehicle: saline 97 % of control | dose: 30.0 mg/kg/injection, schedule: Q01DX001 (ip), vehicle: saline 100 % of control | dose: 30.0 mg/kg/injection, schedule: Q04DX003 (ip), vehicle: saline 98 % of control

O=c1oc(-c2ccccc2Cl)nc2cc(Cl)ccc12
inactive: [1] 96 % of control | dose: 100.0 mg/kg/injection, schedule: Q01DX009 (ip), vehicle: saline with Tween-80 100 % of control

c1ccc(SSc2ccccc2)cc1
inactive: dose: 25.0 mg/kg/injection, schedule: Q01DX009 (ip), vehicle: saline with Tween-80 89 % of control | [2] 95 % of control | [1] 86 % of control | [3] 103 % of control | [4] 97 % of control

CCOC(=O)CCC1(C(=O)OC)C(=O)CCCCCCC1C(=O)OC (centres undefined)
inactive: [4] 103 % of control | dose: 200.0 mg/kg/injection, schedule: Q04DX003 (ip), vehicle: saline with Tween-80 99 % of control | dose: 400.0 mg/kg/injection, schedule: Q04DX003 (ip), vehicle: saline with Tween-80 96 % of control

CCOC(=O)NC(C)c1cccc2ccccc12 (centres undefined)
inactive: dose: 100.0 mg/kg/injection, schedule: Q04DX003 (ip), vehicle: Klucel (hydroxypropylcellulose) (HPC) 93 % of control | dose: 200.0 mg/kg/injection, schedule: Q04DX003 (ip), vehicle: Klucel (hydroxypropylcellulose) (HPC) 97 % of control | dose: 400.0 mg/kg/injection, schedule: Q04DX003 (ip), vehicle: Klucel (hydroxypropylcellulose) (HPC) 90 % of control

CCOC(=O)C(C)P(=O)(OCC)OCC (centres undefined)
inactive: [5] 112 % of control | [6] 104 % of control | dose: 400.0 mg/kg/injection, schedule: Q01DX009 (ip), vehicle: saline 109 % of control

CN1CCCC1CCCl (centres undefined)
inactive: dose: 12.5 mg/kg/injection, schedule: Q01DX001 (ip), vehicle: saline 97 % of control | dose: 12.5 mg/kg/injection, schedule: Q04DX003 (ip), vehicle: saline 88 % of control | dose: 25.0 mg/kg/injection, schedule: Q01DX001 (ip), vehicle: saline 100 % of control | dose: 25.0 mg/kg/injection, schedule: Q04DX003 (ip), vehicle: saline 95 % of control | dose: 50.0 mg/kg/injection, schedule: Q01DX001 (ip), vehicle: saline 100 % of control | dose: 50.0 mg/kg/injection, schedule: Q04DX003 (ip), vehicle: saline 95 % of control | dose: 75.0 mg/kg/injection, schedule: Q04DX003 (ip), vehicle: saline 100 % of control

CC(CN)NCc1ccccc1 (centres undefined)
inactive: [5] 96 % of control | dose: 100.0 mg/kg/injection, schedule: Q04DX003 (ip), vehicle: saline 103 % of control | [6] 94 % of control | dose: 200.0 mg/kg/injection, schedule: Q04DX003 (ip), vehicle: saline 103 % of control | dose: 400.0 mg/kg/injection, schedule: Q04DX003 (ip), vehicle: saline 95 % of control

COc1ccc2c(c1OC)C13CCN(C)C(C2)C12C=CC(=O)C3c1c(OC)ccc(OC)c12 (centres undefined)
inactive: dose: 100.0 mg/kg/injection, schedule: Q01DX001 (ip), vehicle: saline 95 % of control | dose: 200.0 mg/kg/injection, schedule: Q01DX001 (ip), vehicle: saline 95 % of control | dose: 400.0 mg/kg/injection, schedule: Q01DX001 (ip), vehicle: saline 91 % of control

Nc1ccn(CC(=O)c2ccc(Cl)s2)c(=O)n1
inactive: dose: 100.0 mg/kg/injection, schedule: Q01DX009 (ip), vehicle: water 95 % of control | dose: 100.0 mg/kg/injection, schedule: Q04DX003 (ip), vehicle: water 101 % of control | dose: 200.0 mg/kg/injection, schedule: Q01DX009 (ip), vehicle: water 101 % of control | dose: 200.0 mg/kg/injection, schedule: Q04DX003 (ip), vehicle: water 100 % of control | dose: 400.0 mg/kg/injection, schedule: Q04DX003 (ip), vehicle: water 102 % of control

Nc1ncnc(N)c1NC(=O)C1CCCCC1
inactive: dose: 25.0 mg/kg/injection, schedule: Q01DX001 (ip), vehicle: Klucel (hydroxypropylcellulose) (HPC) 101 % of control | dose: 50.0 mg/kg/injection, schedule: Q01DX001 (ip), vehicle: Klucel (hydroxypropylcellulose) (HPC) 101 % of control

Cc1sc(Cc2ccccc2)nc1-c1ccc(N=Cc2ccc(N(CCOS(C)(=O)=O)CCOS(C)(=O)=O)cc2)cc1
inactive: [2] 113 % of control | [3] 123 % of control | [4] 107 % of control and 114 % of control

CCCCOP(=O)(OCCCC)OC(C#N)CCC (centres undefined)
inactive: dose: 100.0 mg/kg/injection, schedule: Q04DX002 (ip), vehicle: Klucel (hydroxypropylcellulose) (HPC) 107 % of control | dose: 200.0 mg/kg/injection, schedule: Q04DX002 (ip), vehicle: Klucel (hydroxypropylcellulose) (HPC) 98 % of control

— PubChem BioAssay AID248 (DTP/NCI, 2004)
